In ChEMBL document CHEMBL1158218, “Structure and Plant Growth Regulatory Activity of New Diterpenes from Pterodon polygalaeflorus” (1996):
The source made the active and inactive calls. The calls are words filed in the database; no cut-off is given here.

Assays:
[1] = test system: Cucumis sativus; test: Inhibition of radicular growth in Cucumis sativus at 1000 ppm after 3 days; assay type: functional, organism-based
[2] = test system: Sorghum bicolor; test: Inhibition of radicular growth in Sorghum bicolor at 1000 ppm after 3 days; assay type: functional; conditions: 72 h
[3] = test system: Cucumis sativus; test: Stimulation of radicular growth in Cucumis sativus at 100 ppm after 3 days; assay type: functional, organism-based
[4] = test system: Cucumis sativus; test: Stimulation of radicular growth in Cucumis sativus at 1000 ppm after 3 days; assay type: functional, organism-based
[5] = test system: Sorghum bicolor; test: Inhibition of radicular growth in Sorghum bicolor at 100 ppm after 3 days; assay type: functional; conditions: 72 h

Structure (SMILES)	Activity [1]	inhibition at 1000 ppm [2]	Activity [3]	Activity [4]	inhibition at 100 ppm [5]
C[C@]1(CO)CCC[C@]2(C)[C@H]3Cc4occc4[C@@](C)(O)[C@@H]3[C@@H](O)[C@H](O)[C@@H]12	Active	13%	Active		
CC1(C)CCC[C@]2(C)[C@H]3Cc4occc4[C@H]4C(=O)O[C@@H]([C@H](O)[C@@H]12)[C@@H]43		13%	Active	inactive	
CC1(C)CCC[C@]2(C)[C@H]3Cc4occc4[C@@](C)(O)[C@@H]3[C@@H](O)[C@H](O)[C@@H]12		13%	Active	inactive	
CC1(C)CCC[C@]2(C)[C@H]3Cc4occc4[C@@H](C(=O)O)[C@@H]3[C@@H](O)[C@H](O)[C@@H]12	Active	65%	Active		39%
